Cc1ccc2c(c1)C(=O)OC2=O
solubility (mole fraction)
Details | 278.15 K | 283.15 K | 288.15 K | 293.15 K | 298.15 K | 303.15 K | 308.15 K | 313.15 K | 318.15 K
in acetone | 0.127 | 0.15 | 0.176 | 0.206 | 0.236 | 0.272 | 0.312 | 0.356 | 0.406
in acetonitrile | 0.101 | 0.118 | 0.141 | 0.167 | 0.193 | 0.224 | 0.258 | 0.3 | 0.343
in cyclohexane | – | 0.00152 | 0.0019 | 0.00245 | 0.0031 | 0.00396 | 0.00489 | 0.00591 | 0.00729
in methyl acetate | 0.179 | 0.206 | 0.236 | 0.263 | 0.289 | 0.328 | 0.363 | 0.41 | 0.449
in n-butyl acetate | 0.0226 | 0.0267 | 0.0312 | 0.0397 | 0.0473 | 0.0586 | 0.0716 | 0.0858 | 0.102
in n-heptane | 0.00107 | 0.00142 | 0.00178 | 0.00227 | 0.00284 | 0.00355 | 0.00444 | 0.00556 | 0.007
in tetrachloromethane | 0.00751 | 0.00871 | 0.0105 | 0.0127 | 0.0157 | 0.0189 | 0.0222 | 0.0265 | 0.0321
in toluene | 0.0651 | 0.0781 | 0.0945 | 0.11 | 0.133 | 0.158 | 0.188 | 0.225 | 0.273
